Test results taken from PMC8709388, “In Search of Small Molecules That Selectively Inhibit MBOAT4” (Molecules, 2021).
Where a SMILES comes first, the peptide text is derived from it. Where no end group is shown, it is not given here. [ ]: non-standard residue; d: D form. The star is where a group is joined. Tle = CC(C)(C)[C@H](N)C(=O)O; Octanoyl = CCCCCCCC(=O)*; Dap = NC[C@H](N)C(=O)O; Sar = CNCC(=O)O

How the values were obtained:
mouse GOAT = molecular target: T1, mouse GOAT (Mus musculus, UniProt P0C7A3); test: Acyltransferase assay: inhibition of proghrelin octanoylation by GOAT in sf9 membrane fractions; format: biochemical; conditions: for IC50: read-out: IC50 (GOAT, membrane fraction, in-house); for GOAT inhibition in vitro (in words): membrane fractions
T1 construct: made in house; host or cells: sf9 insect cells (baculovirus, pFastBac1-mouseGOAT); total membrane fraction, not purified
T1 sequence (P0C7A3 1-435): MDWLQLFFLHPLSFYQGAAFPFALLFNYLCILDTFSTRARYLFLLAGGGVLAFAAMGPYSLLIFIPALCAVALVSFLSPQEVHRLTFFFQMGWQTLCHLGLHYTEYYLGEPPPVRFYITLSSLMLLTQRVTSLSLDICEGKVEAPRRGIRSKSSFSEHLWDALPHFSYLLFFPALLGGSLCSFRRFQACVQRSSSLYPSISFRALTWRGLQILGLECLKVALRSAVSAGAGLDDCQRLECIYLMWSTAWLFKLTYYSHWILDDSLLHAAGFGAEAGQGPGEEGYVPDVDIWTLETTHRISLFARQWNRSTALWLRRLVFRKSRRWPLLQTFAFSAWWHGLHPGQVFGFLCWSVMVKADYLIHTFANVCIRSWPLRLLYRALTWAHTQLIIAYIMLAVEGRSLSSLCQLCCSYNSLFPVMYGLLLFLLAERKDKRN
Procedure: pFastBac1-mouseGOAT and pGEX-GST-proGhrelin8His plasmid encoding for mouse proghrelin, fused to GST with TEV cleavage site to release proghrelin moiety, was a kind gift from the Brown and Goldstein laboratory. The BL21Gold E. coli chemically competent cells were transformed with the pGEX-GST-proGhrelin8His plasmid and selected on agar plates with ampicillin. A few colonies were used to inoculate 50 mL LB, and cultures were grown overnight at 37 °C. The next morning, 10 mL of overnight culture was used to inoculate 1L LB. A total of 4 flasks with 1L LB each were inoculated with 10 mL of the overnight culture, and bacterial cultures were grown at 37 °C until they reached OD600 ~ 0.6. The cultures were chilled on ice for 30 min and then 0.25 mM of IPTG was added to each culture. The cultures were then moved back to a shaker set to 18 °C and incubated overnight. Cells were harvested and resuspended in 200 mL buffer containing 25 mM Tris-HCl pH 8.0, 150 mM NaCl, 1 mM EDTA and 0.5 mg/mL lysozyme. The cell suspension was sonicated, and cell debris was removed by centrifugation. The soluble fraction was passed through glutathione resin by gravity. The resin was washed with 75 mL of lysis buffer without lysozyme. The GST-proGhrelin8His protein was eluted with lysis buffer without lysozyme, supplemented with 15 mM reduced glutathione, GSH. About 50 mg of target protein, as evaluated by SDS-PAGE, was eluted. The eluate was supplemented with 1 mM DTT and about 7.5 mg of recombinant GST-TEV protease (see below) was added. The solution was incubated at 16 °C overnight to allow complete release of proghrelin8His from GST. Prior to Ni-NTA chromatography, 5 mM CaCl2 was added, and the solution was spun down at 4000× g for 10 min. After elution from Ni-NTA resin, protein solution was dialyzed against buffer containing 10 mM Tris-HCl pH 8.5, 50 mM NaCl, 10% glycerol and 0.01% CHAPS using 3 kDa cutoff membrane with 3 buffer exchanges. The protein was quantified by absorbance at A280 and qualified by SDS-PAGE.
The baculovirus expression of mouse GOAT. DH10Bac E. coli strain (ThermoFisher, Waltham, MA, USA) was transformed with pFastBac1-mouseGOAT plasmid, and Bacmid DNA from 12 white colonies was analyzed by DNA sequencing and PCR reaction. All clones were transfected to sf9 cells and level of mGOAT expression was compared between clones from cells producing P2. The clone with the highest mGOAT expression level was used to produce P3. For membrane isolation, sf9 cells were seeded at 2–4 × 10^6 /mL in total 1 L volume of sf-900 serum-free medium (ThermoFisher) and infected with P3 virus. At day 2 post-infection, cells were harvested and resuspended in 40 mL of buffer containing 50 mM NaPi pH 7.2, 150 mM NaCl, 1 mM EDTA, 100 μM bis (4-nitrophenyl) phosphate, 2.5 μg/mL aprotinin, 10 μg/mL leupeptin, 10 μg/mL pepstatin A. Cell suspension was briefly sonicated and cell debris was removed by centrifugation at 3000× g for 10 min. Membrane fraction was collected from supernatant by centrifugation at 100,000× g for 1 h. Membrane pellet was resuspended in storage buffer (50 mM NaPi pH 7.2, 150 mM NaCl and 10% glycerol) and kept at −80 °C. Acyltransferase assay: The assay conditions included per 50 μL reaction: 50 μg of total sf9 membranes, various (for modality experiment) or fixed (for IC50) concentrations of recombinant proghrelin8His peptide and various concentrations of tested compound (for IC50), 100 μM palmitoyl CoA, 50 mM HEPES pH 7.0 and 1 μM [^3H] octanoyl CoA (~5.5 dpm/fmol—American Radioactive Chemicals). After incubation of the reaction mixture at 37C for 10 min, tubes were placed on ice and 10 μL of 1M HCl was added to each tube. Following the addition of 740 μL of cold quench buffer (50 mM NaPi pH 7.4, 10 mM Imidazole, 150 mM NaCl, 100 μM bis (4-nitrophenyl) phosphate, 1 mM phenylmethylsulfonyl fluoride and 0.1% Triton), 0.2 mL of 50% Ni-NTA slurry was added to each reaction. […]

Pharmacokinetics in mice = format: in vivo
GOAT = conditions: cited from earlier work
[1] = sf9 membranes containing mouse GOAT, [3H]octanoyl CoA, proghrelin8His

Row | Molecule | IC50 (mouse GOAT; [1]) [nM] | GOAT inhibition in vitro (in words) (mouse GOAT) | other results
1 | N-(((3S,6S,9S)-9-(2-aminoacetamido)-3-benzyl-10,10-dimethyl-5,8-dioxo-1,11-dioxa-4,7-diazacyclopentadec-13-en-6-yl)methyl)octanamide [17a] | – | – | mode of GOAT inhibition (mouse GOAT; reaction rates at varied substrate concentrations, fixed inhibitor concentration): competing for the peptide substrate
2 | CCCCCCCC(=O)NC[C@H](NC(=O)[C@@H](NC(=O)CNC)C(C)(C)C)C(=O)N[C@@H](Cc1ccccc1)C(N)=O [compound 8] (H-[Sar][Tle][Dap](Octanoyl)F-NH2) | 14 | – | –
3 | CCCCCCCC(=O)NC[C@H](NC(=O)[C@@H](NC(=O)CNC)C(C)(C)C)C(N)=O [compound 12] (H-[Sar]-[Tle]-[Dap](Octanoyl)-NH2) | > 1000 | inactive | –
4 | CCCCOCC(=O)N1CCC(/C=C\c2c(C)nc3nonc3c2N)CC1 [compound 25, (Z)-1-(4-(2-(7-amino-5-methyl-[1,2,5]oxadiazolo[3,4-b]pyridin-6-yl)vinyl)piperidin-1-yl)-2-butoxyethan-1-one] | 440 | significantly impaired | –
5 | C[C@H](NC(=O)c1ccnn1C)C(=O)N1CCC(CCCc2cc(N)c3nonc3n2)CC1 [compound 35, (S)-N-(1-(4-(3-(7-amino-[1,2,5]oxadiazolo[3,4-b]pyridin-5-yl)propyl)pip-eridin-1-yl)-1-oxopropan-2-yl)-1-methyl-1H-pyrazole-5-carboxamide] | – | significantly impaired | IC50 (GOAT, membrane fraction, in-house) (mouse GOAT; [1]): inactive
6 | 1: GOAT reaction product, acyl ghrelin, 28-residue lipopeptide octanoylated at Ser3 (GSS(Octanoyl)FLSPEHQRVQQRKESKKPPAKLQPR; UniProt Q9UBU3 24-51, looked up) [compound 1] | – | – | GOAT inhibition (in words) (GOAT): weakly inhibited
7 | O=C(O)c1ccc2oc(SCc3ccc(Cl)cc3Cl)nc2c1 [compound 7] | – | – | mode of GOAT inhibition (GOAT): competed at the CoA site on GOAT

Further lines, with some results ahead:

Row | IC50 (mouse GOAT; [1]) [nM] | GOAT inhibition in vitro (in words) (mouse GOAT) | Molecule | other results
8 | 96 | – | CCCCCCCC(=O)NC[C@H](NC(=O)[C@@H](NC(=O)CNC)C(C)(C)C)C(=O)N[C@@H](Cc1ccccc1)C(=O)N[C@@H](CC(C)C)C(=O)N[C@@H](CO)C(=O)N1CCC[C@H]1C(N)=O [compound 15] (H-[Sar][Tle][Dap](Octanoyl)FLSP-NH2) | –
9 | 50 | – | CCCCCCCC(=O)NC[C@H](NC(=O)[C@@H](NC(=O)CNC)C(C)(C)C)C(=O)N[C@@H](Cc1ccccc1)C(=O)N[C@@H](CC(C)C)C(N)=O [compound 13] (H-[Sar][Tle][Dap](Octanoyl)FL-NH2) | oral bioavailability (Pharmacokinetics in mice): low; pharmacokinetics (Pharmacokinetics in mice): poor
10 | 62 | – | CCCCCCCC(=O)NC[C@H](NC(=O)[C@@H](NC(=O)CNC)C(C)(C)C)C(=O)N[C@@H](Cc1ccccc1)C(=O)N[C@@H](CC(C)C)C(=O)N[C@@H](CO)C(N)=O [compound 14] (H-[Sar][Tle][Dap](Octanoyl)FLS-NH2) | –
